Measured values reported in ChEMBL document CHEMBL4002552, “Discovery of novel piperidine-substituted indolylarylsulfones as potent HIV NNRTIs via structure-guided scaffold morphing and fragment rearrangement” (Eur J Med Chem, 2017).
Calls of active or inactive are those of the source. No cut-off for these calls is given here.

Experiments:
[1] = test system: Human immunodeficiency virus 1; experiment: Potency index, ratio of delavirdine EC50 to test compound EC50 for HIV1 3B expressing wild type reverse transcriptase; type: functional
[2] = test system: Human immunodeficiency virus 1; type: functional, cell-based; settings: Human immunodeficiency virus 1, MT4, 120 h
[3] = test system: Human immunodeficiency virus 2; experiment: Antiviral activity against HIV2 ROD infected in human MT4 cells assessed as protection against virus-induced cytopathic effect after 5 days by MTT assay; type: functional, cell-based; settings: ISOLATE ROD
[4] = test system: Human immunodeficiency virus 1; experiment: Antiviral activity against HIV1 expressing reverse transcriptase K103N mutant infected in human MT4 cells assessed as protection against virus-induced cytopathic effect after 5 days by MTT assay; type: functional, cell-based; settings: Human immunodeficiency virus 1, MT4, 120 h
in vitro [5] = settings: human, MT4 cells
Description: Selectivity index, ratio of CC50 for human MT4 cells to EC50 for HIV1 RES056 expressing reverse transcriptase mutant

in vitro [6] = settings: human, MT4 cells; remark: listed apart in the source
Description: Selectivity index, ratio of CC50 for human MT4 cells to EC50 for HIV1 3B expressing wild type reverse transcriptase

in vitro [7] = settings: human, MT4 cells; remark: listed apart in the source
Description: Selectivity index, ratio of CC50 for human MT4 cells to EC50 for HIV1 expressing reverse transcriptase Y181C mutant

in vitro [8] = settings: human, MT4 cells; remark: listed apart in the source
Description: Selectivity index, ratio of CC50 for human MT4 cells to EC50 for HIV1 expressing reverse transcriptase F227L/V106A double mutant

[9] = test system: Human immunodeficiency virus 1; experiment: microbe, parasite or virus in culture; settings: Human immunodeficiency virus 1, MT4, 120 h
Description: Antiviral activity against HIV1 expressing reverse transcriptase L100I mutant infected in human MT4 cells assessed as protection against virus-induced cytopathic effect after 5 days by MTT assay

in vitro [10] = settings: human, MT4 cells; remark: listed apart in the source
Description: Selectivity index, ratio of CC50 for human MT4 cells to EC50 for HIV1 expressing reverse transcriptase K103N mutant

in vitro [11] = settings: human, MT4 cells; remark: listed apart in the source
Description: Selectivity index, ratio of CC50 for human MT4 cells to EC50 for HIV1 expressing reverse transcriptase E138K mutant

[12] = Cytotoxicity against human MT4 cells assessed as decrease in cell viability after 5 days by MTT assay; type: cell-based
in vitro [13] = settings: human, MT4 cells; remark: listed apart in the source
Description: Selectivity index, ratio of CC50 for human MT4 cells to EC50 for HIV1 expressing reverse transcriptase L100I mutant

[14] = test system: Human immunodeficiency virus 1; experiment: Potency index, ratio of nevirapine EC50 to test compound EC50 for HIV1 3B expressing wild type reverse transcriptase; type: functional
[15] = test system: Human immunodeficiency virus 1; experiment: microbe, parasite or virus in culture; settings: Human immunodeficiency virus 1, 3B, MT4, 120 h
Description: Antiviral activity against HIV1 3B expressing wild type reverse transcriptase infected in human MT4 cells assessed as protection against virus-induced cytopathic effect after 5 days by MTT assay

[16] = test system: Human immunodeficiency virus 1; experiment: Antiviral activity against HIV1 expressing reverse transcriptase E138K mutant infected in human MT4 cells assessed as protection against virus-induced cytopathic effect after 5 days by MTT assay; type: functional, cell-based; settings: Human immunodeficiency virus 1, MT4, 120 h
[17] = test system: Human immunodeficiency virus 1; experiment: Resistance ratio of EC50 for HIV1 expressing reverse transcriptase L100I mutant to EC50 for HIV1 3B expressing wild type reverse transcriptase; type: functional
[18] = test system: Human immunodeficiency virus 1; type: functional, cell-based; settings: Human immunodeficiency virus 1, MT4, 120 h; remark: listed apart in the source
in vitro [19] = settings: human, MT4 cells; remark: listed apart in the source
Description: Selectivity index, ratio of CC50 for human MT4 cells to EC50 for HIV1 expressing reverse transcriptase Y188L mutant

[20] = test system: Human immunodeficiency virus 1; experiment: Resistance ratio of EC50 for HIV1 expressing reverse transcriptase K103N mutant to EC50 for HIV1 3B expressing wild type reverse transcriptase; type: functional
[21] = test system: Human immunodeficiency virus 1; experiment: Antiviral activity against HIV1 RES056 expressing reverse transcriptase mutant infected in human MT4 cells assessed as protection against virus-induced cytopathic effect after 5 days by MTT assay; type: functional, cell-based; settings: Human immunodeficiency virus 1, RES056, MT4, 120 h
[22] = test system: Human immunodeficiency virus 1; type: functional, cell-based; settings: Human immunodeficiency virus 1, MT4, 120 h; remark: listed apart in the source
[23] = Inhibition of recombinant wild type HIV1 reverse transcriptase using poly (A).oligo (dT)15 as template/primer assessed as decrease in biotin-dUTP incorporation after 1 hr by ELISA; set-up: species or system Human immunodeficiency virus 1

Row | SMILES | EC50 [2] [nM] | EC50 [4] [nM] | selectivity ratio (in vitro [6]) | selectivity ratio (in vitro [7]) | selectivity ratio (in vitro [8]) | EC50 [9] [nM] | selectivity ratio (in vitro [10]) | selectivity ratio (in vitro [11]) | CC50 at 120 h [12] [nM] | selectivity ratio (in vitro [13]) | EC50 [15] [nM] | EC50 [16] [nM] | EC50 [18] [nM] | selectivity ratio (in vitro [19]) | EC50 [21] [nM] | EC50 [22] [nM] | IC50 [23] [nM] | further results
1 | Cc1cc(C)cc(S(=O)(=O)c2c(C(=O)NC3CCN(CCO)CC3)[nH]c3ccc(Br)cc23)c1 | 220 | 84 | 1000 | 48 | 28 | 17 | 74 | 46 | 6300 | 368 | 6 | 140 | 130 | < 1 | > 6300 | > 6300 | – | Ratio EC50 [1]: 4; Activity [3]: inactive; selectivity ratio (in vitro [5]): < 1; Ratio EC50 [14]: 20; Ratio EC50 [17]: 2.8; Ratio EC50 [20]: 14
2 | O=C1Nc2ccc(Cl)cc2[C@@](C#CC2CC2)(C(F)(F)F)O1 [EFAVIRENZ] | 76 | 98 | – | – | – | – | – | – | > 6300 | – | – | – | 5 | – | 110 | 92 | – | –
3 | Cc1cc(C#N)cc(C)c1Oc1nc(Nc2ccc(C#N)cc2)nc(N)c1Br [ETRAVIRINE] | – | – | – | – | – | 9 | – | – | – | – | – | 11 | 14 | – | 34 | 15 | 1100 | –
4 | Cc1cc(C)cc(S(=O)(=O)c2c(C(=O)NCC3CCN(CCO)CC3)[nH]c3ccc(Cl)cc23)c1 | 620 | 320 | 205 | 12 | 11 | 110 | 21 | 22 | 6700 | 59 | 32 | 300 | 560 | < 1 | > 6700 | > 6700 | – | Activity [3]: inactive; selectivity ratio (in vitro [5]): < 1
5 | CCOC(=O)CCN1CCC(CNC(=O)c2[nH]c3ccc(Cl)cc3c2S(=O)(=O)c2cc(C)cc(C)c2)CC1 | – | – | – | – | – | – | – | – | 19200 | – | – | – | – | – | – | – | 10100 | –
6 | Cc1ccnc2c1NC(=O)c1cccnc1N2C1CC1 [NEVIRAPINE] | 3500 | 3600 | – | – | – | – | – | – | > 15000 | – | – | 160 | 3800 | – | 2200 | 4400 | 2800 | –
7 | CC(C)Nc1cccnc1N1CCN(C(=O)c2cc3cc(NS(C)(=O)=O)ccc3[nH]2)CC1 [DELAVIRDINE] | 2600 | 2500 | 1880 | 23 | 17 | 3500 | 18 | 634 | > 43800 | 13 | 24 | 70 | 1900 | 81 | ≥ 37000 | 550 | – | –
